Assay [1] concerns the target T1, Type-1 angiotensin II receptor A (Rattus norvegicus, UniProt P25095).
T1 sequence (P25095 whole entry): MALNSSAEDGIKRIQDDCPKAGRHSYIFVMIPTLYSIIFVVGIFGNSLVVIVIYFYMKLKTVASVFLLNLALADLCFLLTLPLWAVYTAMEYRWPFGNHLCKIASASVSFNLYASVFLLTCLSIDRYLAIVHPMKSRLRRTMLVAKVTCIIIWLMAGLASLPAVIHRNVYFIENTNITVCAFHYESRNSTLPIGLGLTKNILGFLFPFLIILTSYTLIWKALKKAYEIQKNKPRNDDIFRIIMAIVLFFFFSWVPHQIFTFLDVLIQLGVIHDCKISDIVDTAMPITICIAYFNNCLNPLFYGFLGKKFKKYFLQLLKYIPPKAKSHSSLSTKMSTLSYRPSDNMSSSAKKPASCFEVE
The experiment in a line: Displacement of [125I]- Ang II from type 1 Angiotensin II receptor.

In a further assay the test system is Rattus norvegicus. The assay can be described thus: Effective dose required to lower blood pressure by 30 mm Hg in renal hypertensive rats following intravenous administration. Format: functional.
The target in assay [2] is T2, Type-1 angiotensin II receptor (Homo sapiens, UniProt P30556).
T2 sequence (P30556 whole entry): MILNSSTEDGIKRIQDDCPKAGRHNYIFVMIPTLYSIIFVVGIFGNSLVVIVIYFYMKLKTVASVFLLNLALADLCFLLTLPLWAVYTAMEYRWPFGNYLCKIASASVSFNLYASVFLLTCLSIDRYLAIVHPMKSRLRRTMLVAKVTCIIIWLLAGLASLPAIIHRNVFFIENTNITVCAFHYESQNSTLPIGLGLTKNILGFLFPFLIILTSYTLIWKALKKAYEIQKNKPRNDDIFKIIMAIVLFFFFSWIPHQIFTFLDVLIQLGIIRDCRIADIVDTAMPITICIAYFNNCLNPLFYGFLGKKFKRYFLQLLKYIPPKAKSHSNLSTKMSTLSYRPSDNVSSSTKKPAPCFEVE
The assay can be described thus: The compound was tested for the ability to displace 50% of totally specifically bound [125I]- Ang II from Angiotensin II receptor, type 1 site.

Assay [3] deals with T3, Type-2 angiotensin II receptor (Homo sapiens, UniProt P50052).
T3 sequence (P50052 whole entry): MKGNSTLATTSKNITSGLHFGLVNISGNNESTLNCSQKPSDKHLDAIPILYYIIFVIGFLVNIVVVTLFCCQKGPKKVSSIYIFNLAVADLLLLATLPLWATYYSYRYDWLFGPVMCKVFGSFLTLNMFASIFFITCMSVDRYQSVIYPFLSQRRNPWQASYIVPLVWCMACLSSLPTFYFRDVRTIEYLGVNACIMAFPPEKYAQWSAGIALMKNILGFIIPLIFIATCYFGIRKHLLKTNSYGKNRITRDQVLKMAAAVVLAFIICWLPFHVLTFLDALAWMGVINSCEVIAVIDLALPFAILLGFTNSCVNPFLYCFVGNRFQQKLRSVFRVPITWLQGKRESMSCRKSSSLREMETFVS
The experiment in a line: The compound was tested for the ability to displace 50% of totally specifically bound [125I]- Ang II from Angiotensin II receptor, type 2.

Experimental findings from ChEMBL document CHEMBL1153253, “Imidazolinones as nonpeptide angiotensin II receptor antagonists” (Bioorg Med Chem Lett, 1994) are described below.

With `O=C1N(Cc2ccc(-c3ccccc3-c3nn[nH]n3)cc2)C(c2ccccc2)=NC1(c1ccccc1)c1ccccc1`, in assay [1], the IC50 (commonly the concentration that gives 50% inhibition) was found to be 1400 nM. That is a single-digit micromolar value.

As for `CCCCC1=NC2(CCCC2)C(=O)N1Cc1ccc(-c2ccccc2-c2nnn[nH]2)cc1` [IRBESARTAN], the IC50 in assay [1] is 0.9 nM. In the assay with Rattus norvegicus, the ED30 was 0.16 mg/kg.

For `CCCC1=NC2(CCSCC2)C(=O)N1Cc1ccc(-c2ccccc2-c2nnn[nH]2)cc1`, the IC50 in assay [2] is 2 nM. In the assay on Rattus norvegicus, this compound came in with an ED30 of 0.26 mg/kg.

In assay [1], `CC1=NC(c2ccccc2)(c2ccccc2)C(=O)N1Cc1ccc(-c2ccccc2-c2nnn[nH]2)cc1` had an IC50 of 100 nM.

On to `CCCC1=NC2(CCCC2)C(=O)N1Cc1ccc(-c2ccccc2-c2nnn[nH]2)cc1`, for which the IC50 in assay [1] is 0.9 nM. The compound further came in with an ED30 in the assay with Rattus norvegicus of 0.32 mg/kg.

As for `CCCC1=NC2(CC2)C(=O)N1Cc1ccc(-c2ccccc2-c2nn[nH]n2)cc1`, the IC50 in assay [1] was 3 nM. The compound also gave an ED30 in the assay with Rattus norvegicus of 0.54 mg/kg.

In turn, `CCCC1=NC(c2ccccc2)(c2ccccc2)C(=O)N1Cc1ccc(-c2ccccc2-c2nn[nH]n2)cc1` registered an IC50 in assay [1] of 300 nM.

`CCCC1=NC(C(F)(F)F)(C(F)(F)F)C(=O)N1Cc1ccc(-c2ccccc2-c2nn[nH]n2)cc1` came in with an IC50 in assay [1] of 20 nM. Compared with the last compound, the IC50 is about 15-fold lower.

On to `CCCC1=NC2(CCCC2)C(=O)N1Cc1ccc(-c2ccccc2S(=O)(=O)NC(=O)c2ccccc2)cc1`, for which the results for the IC50 in assay [3] and in assay [1] were 300 nM and 9 nM, respectively. Also, the ED30 in the assay with Rattus norvegicus was found to be 0.14 mg/kg.

With `CCCC1=NC2(CCSCC2)C(=O)N1Cc1ccc(-c2ccccc2S(=O)(=O)NC(=O)c2ccccc2)cc1`, the figures for the IC50 in assay [3] and in assay [1] were 200 nM and 1 nM, respectively. The same compound showed an ED30 in the assay with Rattus norvegicus of 0.29 mg/kg.

As for `CCCC1=NC2(CCOCC2)C(=O)N1Cc1ccc(-c2ccccc2-c2nn[nH]n2)cc1`, the IC50 in assay [1] was 8 nM. The ED30 with Rattus norvegicus was found to be 0.2 mg/kg.

Consider `CCCC1=NC2(CCCCC2)C(=O)N1Cc1ccc(-c2ccccc2-c2nnn[nH]2)cc1`, for which, in assay [1], the concentration for half-maximal inhibition (IC50) is 3 nM. In addition, the ED30 in the assay with Rattus norvegicus amounted to 0.25 mg/kg.

As for `CCCC1=NC(C)(C)C(=O)N1Cc1ccc(-c2ccccc2S(=O)(=O)NC(=O)c2ccccc2)cc1`, the 50% inhibitory concentration (IC50) in assay [3] worked out at 200 nM; in assay [1] it was 3 nM. This compound also gave an ED30 with Rattus norvegicus of 0.17 mg/kg.

`CCCCC1=NC2(CCCC2)C(=O)N1Cc1ccc(-c2ccccc2S(=O)(=O)NC(=O)c2ccccc2)cc1`: the results for the IC50 in assay [3] and in assay [1] were 100 nM and 1 nM, respectively. For the same compound, in the assay with Rattus norvegicus, the ED30 was determined as 0.29 mg/kg.

In the case of `CCCC1=NC(C)(C)C(=O)N1Cc1ccc(-c2ccccc2-c2nn[nH]n2)cc1`, the IC50 in assay [1] was 4 nM. This compound returned an ED30 in the assay on Rattus norvegicus of 0.36 mg/kg.
